Test results reported in article PMC4141155 (2014).
Several values for one entry are separate records, joined by “and”; a condition that tells them apart may be missing. Equal entries are not always repeated.

Assays:
[1] = system: dAGGG(TTAGGG)3 (DNA, G4) AGGGTTAGGGTTAGGGTTAGGG; assay: UV melting at 295 nm; settings: K+ 100 mM (KCl); 25 mM Tris–HCl pH 7.4; 5 μM DNA, 10 μM ligand; 2.27 °C higher than tetrachloride
[2] = system: r[(UUAGGG)4UUA] (RNA, G4) UUAGGGUUAGGGUUAGGGUUAGGGUUA; assay: ESI-TOF-MS; settings: NH4+ 50 mM (ammonium acetate); pH 7.6, 50 % methanol, equimolar 5 or 10 μM; first of two stepwise constants
[3] = system: d[(TTAGGG)4TTA] (DNA, G4) TTAGGGTTAGGGTTAGGGTTAGGGTTA; assay: ESI-TOF-MS; settings: NH4+ 50 mM (ammonium acetate), pH 7.6, 50 % methanol
[4] = system: d[(TTAGGG)4TTA] (DNA, G4) TTAGGGTTAGGGTTAGGGTTAGGGTTA; assay: ESI-TOF-MS fraction of bound G-quadruplex; settings: NH4+ 50 mM (ammonium acetate); pH 7.6, 50 % methanol; equimolar 10 μM

## C[n+]1ccc(-c2c3nc(c(-c4cc[n+](C)cc4)c4ccc([nH]4)c(-c4cc[n+](C)cc4)c4nc(c(-c5cc[n+](C)cc5)c5ccc2[nH]5)C=C4)C=C3)cc1
[1]
  binding: yes
[2]
  K 1 (column head misprinted K 2): (5.62 ± 0.71) × 10^7 M^−1
[3]; equimolar 5 or 10 μM, first of two stepwise constants
  K 1: (1.87 ± 0.19) × 10^6 M^−1
[4]
  RBA: 85.96% and 72.28%

## Cc1ccc(S(=O)(=O)O)cc1
[3]; tosyl adducts seen in equimolar mixture with TMPyP4 tetratosylate, 10 μM
  binding: yes
